Here are results for six molecules from patent US20110171225A1, “Novel Plasmodium Falciparum Gene Encoding Signal Peptide Peptidase and Method of Using Inhibitors Thereof for Inhibiting Malarial Infection” (The Board of Trustees of the University of Illinois, priority 2008, published 2011).

As usually defined, the IC50 is the concentration that inhibits the measured activity by half.

Assay [1] relates to P. falciparum merozoite invasion of human erythrocytes. The assay can be described thus: RBC invasion by synchronized schizonts with SPP inhibitors, new rings counted. Format: cell-based. The note with it: increasing concentrations, 20 h, versus DMSO. The source says: To investigate the role of PfSPP in parasite invasion, a chemical approach was adopted by employing three synthetic inhibitors of mammalian membrane aspartyl proteases. The inhibitor (Z-LL)2-ketone (Calbiochem/EMD Biosciences, Gibbstown, N.J.) is specific for mammalian SPP, whereas the L-685,458 and DAPT inhibitors (both were gift of Dr. S. Sisodia of the University of Chicago) are known to be specific for the γ-secretase/Presenilin-1 complex (FIG. 8A). […] Herein, human erythrocytes with highly synchronized P. falciparum schizonts were incubated in the presence of increasing concentrations of (Z-LL)2-ketone, L-685,458, and DAPT. After 20 h of incubation, the rings were counted from the inhibitor and DMSO treated samples.

In assay [2] the test system is P. falciparum 3D7. The assay can be described thus: Parasite growth in human erythrocytes from synchronized ring stage. Format: cell-based. Conditions: for inhibition of parasite replication (in words): 10 μM, after one cycle of asexual multiplication; for effect on parasite growth in erythrocytes (in words): ring stage parasites, 0.2% DMSO. The source says: FIG. 9B depicts a graph indicating inhibition of parasite growth as a result of (Z-LL)2-ketone (▪), L-685,458 (•), and DAPT (♦) treatment. […] FIG. 9C is a schematic diagraph showing disruption of the P. falciparum (3D7 strain) PfSPP gene. PfSPP5′ and PfSPP3′ represent 5′ translated region (616 bp) and 3′ translated region (711 bp) of the PfSPP gene, respectively. Dashed lines represent bacterial vector sequences. Bold lines represent untranslated regions of the target PfSPP gene.
The P. falciparum strain 3D7 (obtained from MR4) was maintained in continuous culture in a 5% suspension of fresh type O+ human erythrocytes in RPMI 1640 at 37° C. under 5% CO2, 5% O2, and 90% N2 by the method of Trager and Jensen (Trager et al., 1976, Science 193:673-5). Ring-stage parasites were synchronized by using 5% sorbitol treatment and late-stage parasites were enriched to >95% by centrifugation in 63% (v/v) Percoll as described (Goel et al., 2003, Proc Natl Acad Sci USA 100:5164-5169). The parasite protein extract was prepared by solubilizing an enriched fraction of mature parasites with an extraction buffer (50 mM Tris-HCl, pH 8.0, 150 mM NaCl, 5 mM EDTA, 5 mM EGTA, 0.5% Triton X-100, 0.5% BSA) supplemented with 2 μg/ml Aprotinin, 1 μg/ml of Leupeptin, Pepstatin A, Bestatin, 10 mM PMSF, and a cocktail of protease inhibitors (Roche, Indianapolis, Ind.). The mixture was kept on ice for 1 h and centrifuged at 12,000 g for 20 min at 4° C. The supernatant was stored at −80° C. in aliquots and used in the antibody characterization and binding assays.
The effects of the three inhibitors on malaria parasite growth in human erythrocytes were examined Synchronized ring stage parasites were incubated with inhibitors in the presence of 0.2% DMSO. […] The precipitous decline in parasitemia presumably originated from inhibition of late rings or early trophozoites, as pyknotic parasites were observed after 24-48 h of culture in the presence of (Z-LL)2-ketone and L-685,458 (FIG. 4). Destruction of the inhibitor-treated parasites was irreversible, as no progression to the second asexual cycle was observed. In contrast, DAPT had little or no effect on parasite growth as compared to the DMSO-treated control (FIG. 9A).

The subject of assay [3] is P. falciparum 7G8. Kind of assay: Parasite growth by [3H]-hypoxanthine incorporation. Format: cell-based. The note with it: 7G8 strain, chloroquine-resistant. How it is done: (§1) Since the primary structure of PfSPP is highly conserved, the effect of these inhibitors on the growth of other P. falciparum strains was also tested. The parasite strains tested included two chloroquine-resistant P. falciparum strains (7G8, Dd2), one chloroquine-sensitive strain (HB3), and one mildly chloroquine-resistant strain (FCR3). Parasite growth was evaluated in these four strains by measuring [^3H]-hypoxanthine incorporation starting at 24 h post-invasion. Both (Z-LL)2-ketone and L-685,458 inhibited parasite growth in all 4 parasite strains with the IC50 values similar to 3D7 strain, while DAPT had no effect on any strain (Table 2).

In assay [4] the test system is P. falciparum Dd2. The assay can be described thus: Parasite growth by [3H]-hypoxanthine incorporation. The format is cell-based. Conditions: Dd2 strain, chloroquine-resistant. On the procedure:
as §1

For assay [5], the system named is P. falciparum FCR3. Kind of assay: Parasite growth by [3H]-hypoxanthine incorporation. Format: cell-based. Conditions: FCR3 strain, mildly chloroquine-resistant. On the procedure:
as §1

In assay [6] the test system is P. falciparum HB3. The assay can be described thus: Parasite growth by [3H]-hypoxanthine incorporation. The format is cell-based. The note with it: HB3 strain, chloroquine-sensitive. On the procedure:
as §1

Assay [7] has as its target T1, γ-secretase/Presenilin-1 complex (Homo sapiens, UniProt P49768).
T1 construct: host or cells: live mammalian cells
The note with it: (Z-LL)2-ketone up to 100 μM; cited from earlier work.

The subject of assay [8] is incomplete version of PfSPP lacking the 6 amino acids. Conditions: cited from earlier work.
For assay [9], the target named is T2, SPP (Homo sapiens, UniProt Q8TCT9).
T2 sequence (Q8TCT9 1-377): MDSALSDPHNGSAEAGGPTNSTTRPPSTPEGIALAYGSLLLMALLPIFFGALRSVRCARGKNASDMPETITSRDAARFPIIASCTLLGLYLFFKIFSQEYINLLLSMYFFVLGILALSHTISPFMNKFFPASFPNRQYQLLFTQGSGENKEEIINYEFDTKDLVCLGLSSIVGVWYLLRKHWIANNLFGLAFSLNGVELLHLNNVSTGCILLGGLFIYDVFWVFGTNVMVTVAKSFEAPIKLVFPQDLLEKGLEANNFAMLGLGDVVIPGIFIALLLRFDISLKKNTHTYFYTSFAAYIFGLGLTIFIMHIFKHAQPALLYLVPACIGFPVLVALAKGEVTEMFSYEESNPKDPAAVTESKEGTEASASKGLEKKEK
Conditions: DAPT at 100 μM; cited from earlier work.

The subject of assay [10] is PfSPP. Kind of assay: RBC-binding assay in suspension with native PfSPP from culture supernatant. The note with it: soluble protein 40 μM, quantified by densitometry of immunoblot. Set-up: species or system P. falciparum. On the procedure:
To carry out a RBC-binding assay in solution using native PfSPP, a spent culture supernatant of P. falciparum containing native PfSPP was prepared as follows. Trophozoites enriched from a 5% sorbitol-synchronized P. falciparum culture were allowed to mature for 16 h to form schizonts and merozoites. The parasites were left in the culture flask to lyse and the proteins were released into the culture supernatant. Aliquots of the culture were centrifuged at either 12,000 g for 20 min or 40,000 g for 15 min at 4° C. The culture supernatant and pellet were analyzed by immunoblot analysis using anti-PfSPP pAbs. The culture supernatant prepared at 12,000 g was stored at −80° C. in aliquots and used in subsequent RBC binding assays. In these assays, a 500 μl sample of P. falciparum culture supernatant was added to untreated, trypsin-treated, chymotrypsin-treated, or neuraminidase-treated intact human RBCs (50 μl packed volume) for 1 h at room temperature. The cells were centrifuged at 12,000 g for 30 s through a layer of silicone oil (500 μl). Proteins bound to RBCs were eluted by incubating the RBCs in 1.5 M NaCl (20 μl) for 30 min at room temperature. Salt-eluted proteins were analyzed by SDS-PAGE followed by immunoblotting using anti-PfSPP Abs. The pretreatment of intact RBCs with enzymes was carried out as described (Goel et al., 2003, Proc Natl Acad Sci USA 100:5164-5169). […]
(In general: A western blot detects proteins with antibodies after separation by electrophoresis.)

For assay [11], the target named is T3, GST-5ABC (GST fused to residues 720-761 of human erythrocyte band 3) (human, UniProt P02730 720-761).
T3 construct: also called soluble GST-5ABC; GST-5ABC conjugated to beads
T3 chain: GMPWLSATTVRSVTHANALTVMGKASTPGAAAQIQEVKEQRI
The assay can be described thus: bead pull-down (GST-5ABC on GSH beads), immunoblot with anti-PfSPP/ER pAbs.

Where [12] appears, read: 3D7 strain, read-out: IC50 parasite growth.
The mark [13] stands for this setting: FIG. 9B legend, read-out: IC50 for live parasites.

Entries after “also recorded” stand apart in the source; their conditions may differ. Read-outs that look alike come from different tables or passages of the source. No end group written: not given here.

Take `CC(C)C[C@H](NC(=O)OCc1ccccc1)C(=O)N[C@@H](CC(C)C)C(=O)NCC(=O)CNC(=O)[C@H](CC(C)C)NC(=O)[C@H](CC(C)C)NC(=O)OCc1ccccc1` [(Z-LL)2-ketone]: the “effect on parasite/merozoite invasion (in words)” value in assay [1] is recorded as “efficiently inhibited; also recorded: significant decrease in the number of new rings”. Besides, in assay [2], the “inhibition of parasite replication (in words)” value was “complete inhibition”. For the same molecule, the IC50 in assay [2] (setting [12]) amounted to 985 nM; in [2] (setting [13]), 985 nM; in assay [3], 1120 ± 50 nM; in [4] it was 1080 ± 70 nM; in [5], 1230 ± 40 nM; in assay [6] it was 1060 ± 50 nM. The “effect on parasite growth in erythrocytes (in words)” value (“effect on parasite growth” for short) in assay [2] is recorded as “significant inhibition”. In addition, the “inhibition of γ-secretase/Presenilin-1 activity (in words)” value in assay [7] is given as “does not inhibit”. For the same molecule, the “inhibition of in vitro enzyme activity (in words)” value in assay [8] is on record as “inhibited”.

With `C[C@H](NC(=O)Cc1cc(F)cc(F)c1)C(=O)N[C@H](C(=O)OC(C)(C)C)c1ccccc1` [DAPT], in assay [1], the “effect on parasite/merozoite invasion (in words)” value is “minimal effect; also recorded: no effect”. For the same molecule, the “effect on parasite growth” value in [2] is listed as “no effect”. The IC50 in assay [3], in [4], in assay [5] and in assay [6] was more than 10000 nM in each case. Also, the “effect on SPP activity (in words)” value in assay [9] is “no effect”.

In the case of `CC(C)C[C@H](NC(=O)[C@H](Cc1ccccc1)C[C@@H](O)[C@H](Cc1ccccc1)NC(=O)OC(C)(C)C)C(=O)N[C@@H](Cc1ccccc1)C(N)=O` [L-685,458], in assay [1], the “effect on parasite/merozoite invasion (in words)” value is recorded as “efficiently inhibited; also recorded: significant decrease in the number of new rings”. Also, the “inhibition of parasite replication (in words)” value in [2] is recorded as “complete inhibition”. Further, the IC50 in assay [2] (setting [12]) turned out to be 174 nM; in [2] (setting [13]), 174 nM; in assay [3], 210 ± 40 nM; in assay [4], 180 ± 30 nM; in assay [5], 230 ± 30 nM; in assay [6], 190 ± 20 nM. Further, the “effect on parasite growth” value in [2] was “significant inhibition”. In addition, the “inhibition of γ-secretase/Presenilin-1 activity (in words)” value in assay [7] was “inhibited”. Moreover, the “effect on SPP activity (in words)” value in assay [9] is “inhibited”.

Consider `C[C@H](NC(=O)[C@@H](O)c1cc(F)cc(F)c1)C(=O)N[C@@H]1C(=O)N(C)c2ccccc2-c2ccccc21` [LY411,575], for which, in assay [8], the “inhibition of in vitro enzyme activity (in words)” value is on record as “inhibited”.

As to “GST-5ABC: GST fusion protein of 5ABC peptide, residues 720-761 of human band 3 (SEQ ID NO:7) (GMPWLSATTVRSVTHANALTVMGKASTPGAAAQIQEVKEQRI; also: GST fusion; UniProt P02730 720-761, looked up, fragment)”, the “decrease of binding of PfSPP to RBCs” value in assay [10] worked out at 94%.

B1: native Plasmodium falciparum signal peptide peptidase (PfSPP) (enzyme)
chain: MNLLKLIGKNKKMKNENMGNSIFYYSCYVIIVLTIILSKFVVIPLMAQMFLYTFITIYIGSHDSLKQLEIDDKTKKSDNITAYDAMMFPVIGSAALLTLYFAYKFLDPFYVNLLLTLYLTLAGVFSLQGVFTTILEPVFPNFFKKDEYVKTFKLPNFIYKEPIVFNTNKGEIVCLILSFAIGLRWIFYKDFITHNVLAVSFCFQAISLVILSNFLIGFLLLSGLFVYDIFWVFGNDVMVTVAKSFEAPVKLLFPVSSDPVHYSMLGLGDIIIPGILMSLCLRFDYYLFKNNIHKGNLKKMFNDISIHESFKKYYFYTIIIFYELGLVVTYCMLFYFEHPQPALLYLVPACILAILACSICKREFKLMIKYQEITDKSNTVDDASKNKKKDKEEIPKIQETPVSNAKKRITNK
notes: also called native PfSPP; native P. falciparum PfSPP
Take B1: the binding result in assay [11] was “binds”.
